Experimental data as given in publication PMC8496750, “Identification of the organic anion transporting polypeptides responsible for the hepatic uptake of the major metabolite of epyrifenacil, S‐3100‐CA, in mice” (Pharmacology Research & Perspectives, 2021).

Legend:
[1] = set-up: method as in PMID 34908893; details: mice; 90‐day; cited from earlier work
human OATP1B1 = target: T1, human OATP1B1 (Homo sapiens, UniProt Q9Y6L6); assay: Inhibition of S‐3100‐CA uptake by OATP inhibitors, human OATP1B1; type: in vitro ADME; details: inhibitor at 100 μM
T1 construct: expressed in transfected cells; host or cells: 293FT cells
T1 sequence (Q9Y6L6 1-691): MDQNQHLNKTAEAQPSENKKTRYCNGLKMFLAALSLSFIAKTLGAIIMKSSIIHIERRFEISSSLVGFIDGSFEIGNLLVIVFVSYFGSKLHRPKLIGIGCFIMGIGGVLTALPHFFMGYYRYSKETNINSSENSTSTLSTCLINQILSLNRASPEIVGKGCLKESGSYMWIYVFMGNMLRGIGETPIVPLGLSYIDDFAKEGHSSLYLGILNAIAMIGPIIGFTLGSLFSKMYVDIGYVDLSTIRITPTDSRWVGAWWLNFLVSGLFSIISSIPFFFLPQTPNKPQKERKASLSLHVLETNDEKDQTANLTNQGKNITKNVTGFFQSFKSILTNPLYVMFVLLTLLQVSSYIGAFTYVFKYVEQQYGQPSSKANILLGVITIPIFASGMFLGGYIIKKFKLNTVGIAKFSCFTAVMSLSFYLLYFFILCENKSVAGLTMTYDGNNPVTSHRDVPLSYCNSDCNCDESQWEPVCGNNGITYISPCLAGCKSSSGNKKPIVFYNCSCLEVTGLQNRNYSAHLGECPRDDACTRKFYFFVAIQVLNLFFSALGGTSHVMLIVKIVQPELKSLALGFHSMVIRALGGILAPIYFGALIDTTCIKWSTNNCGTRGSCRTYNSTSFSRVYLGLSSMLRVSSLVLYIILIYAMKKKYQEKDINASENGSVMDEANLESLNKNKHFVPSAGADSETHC
Protocol: 293FT cells were purchased from Thermo Fisher Scientific, Inc.. The cells were grown in Dulbecco's modified Eagle medium (supplemented with 4.5 g/L glucose and 2 mM L‐glutamine) at 37°C, 5% CO2, and 95% humidity. The cells were passaged 3 times per week by harvesting cells using trypsin and plating at a density of 1.0 × 10^4 cells/cm^2 in a 10 cm cell culture plate for maintenance culture. The 293FT cells were detached using trypsin and re‐seeded at a density of 2.5 × 10^4 cells/cm^2 in BioCoat™ Collagen I 6‐well plates (Corning Inc.) for transfection and then treated with 1.2 μg of plasmid vector and 3.2 μl of Lipofectamine™ 2000 Transfection Reagent (Thermo Fisher Scientific, Inc.) according to the manufacturer's instructions. After a 3‐h treatment, the transfection medium was replaced with a fresh cell culture medium and incubated at 37°C with 95% humidity and 5% CO2 until ready for the assay.
Transport experiments were conducted approximately 24 h post‐transfection. […] From the lysate, 1.0 ml was transferred to a vial containing 10 ml of Emulsifier Scintillator Plus to measure the radioactivity in the LSC. The protein concentration of the cell lysate was also measured using a Pierce™ BCA Protein Assay Kit (Thermo Fisher Scientific, Inc.), which was used to normalize, according to the cell number, the radioactivity in the cell lysate extract. […]

mouse Oatp1a4 = target: T2, mouse Oatp1a4 (Mus musculus, UniProt Q9EP96); assay: in vitro; details: 293FT cells transiently transfected with mouse Oatp1a4, probe radiolabeled S‐3100‐CA
T2 sequence (Q9EP96 1-670): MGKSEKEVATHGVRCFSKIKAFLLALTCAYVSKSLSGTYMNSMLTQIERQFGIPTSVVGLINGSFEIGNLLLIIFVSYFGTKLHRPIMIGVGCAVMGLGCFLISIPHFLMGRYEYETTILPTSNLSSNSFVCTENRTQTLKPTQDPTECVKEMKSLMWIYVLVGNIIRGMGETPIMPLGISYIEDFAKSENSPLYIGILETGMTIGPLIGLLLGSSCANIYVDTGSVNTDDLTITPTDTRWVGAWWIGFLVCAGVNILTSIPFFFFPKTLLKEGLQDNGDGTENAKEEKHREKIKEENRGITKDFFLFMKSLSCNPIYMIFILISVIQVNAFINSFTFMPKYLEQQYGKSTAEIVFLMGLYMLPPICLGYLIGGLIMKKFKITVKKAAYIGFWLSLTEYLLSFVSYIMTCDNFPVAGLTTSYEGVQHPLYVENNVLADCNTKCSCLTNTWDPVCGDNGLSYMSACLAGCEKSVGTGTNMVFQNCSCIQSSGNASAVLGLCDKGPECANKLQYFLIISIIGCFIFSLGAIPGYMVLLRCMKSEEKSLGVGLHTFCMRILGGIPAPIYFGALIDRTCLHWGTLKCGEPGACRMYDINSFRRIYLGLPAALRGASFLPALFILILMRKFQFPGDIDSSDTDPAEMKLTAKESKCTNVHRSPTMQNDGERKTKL
Protocol: Transport experiments were conducted approximately 24 h post‐transfection. The experiments were initiated by aspirating culture medium and addition of pre‐warmed radiolabeled substrate solution (final 1.0% of acetonitrile or 0.9% of ethanol in phosphate‐buffered saline (PBS[−])) to each well. After a 10‐min incubation, cells were washed twice with 1 ml of ice‐cold PBS(−) and lysed with 700 μl of 1.0 M NaOH for 3 h or more at room temperature. The lysate was transferred to a 1.5‐ml tube, and neutralized with 350 μl of 2.0 M HCl and 350 μl of 2.0% sodium dodecyl sulfate (SDS) solution. From the lysate, 1.0 ml was transferred to a vial containing 10 ml of Emulsifier Scintillator Plus to measure the radioactivity in the LSC. The protein concentration of the cell lysate was also measured using a Pierce™ BCA Protein Assay Kit (Thermo Fisher Scientific, Inc.), which was used to normalize, according to the cell number, the radioactivity in the cell lysate extract. The protein assay was performed in duplicate. Each sample type was assayed in triplicate wells, and each run was performed twice. […] Each sample type was assayed in triplicate wells.

mitochondrial PPO = test system: mitochondrial PPO; set-up: method as in PMID 34908893; details: cited from earlier work
hepatocytes = test system: hepatocytes; set-up: method as in PMID 34908893; details: mouse vs human hepatocytes; cited from earlier work

CCOC(=O)COc1ncccc1Oc1cc(-n2c(=O)cc(C(F)(F)F)n(C)c2=O)c(F)cc1Cl [Epyrifenacil, ethyl[(3‐{2‐chloro‐4‐fluoro‐5‐[3‐methyl‐2,6‐dioxo‐4‐(trifluoromethyl)‐3,6‐dihydropyrimidin‐1(2H)‐yl]phenoxy}pyridin‐2‐yl)oxy]acetate]
Hepatocyte injury [1]: produced hepatocyte injury

CO[C@H]1/C=C/O[C@@]2(C)Oc3c(C)c(O)c4c(O)c(c(/C=N/N5CCN(C)CC5)c(O)c4c3C2=O)NC(=O)/C(C)=C\C=C\[C@H](C)[C@H](O)[C@@H](C)[C@@H](O)[C@@H](C)[C@H](OC(C)=O)[C@@H]1C [RIF, Rifampicin]
Uptake of S‐3100‐CA, % of that by vehicle‐treated cells (human OATP1B1): less than 40%
inhibition at 10 min, 10 µM (mouse Oatp1a4): > 50%

Cn1c(C(F)(F)F)cc(=O)n(-c2cc(Oc3cccnc3OCC(=O)O)c(Cl)cc2F)c1=O [S‐3100‐CA]
PPO inhibitory activity (in words) (mitochondrial PPO; PPO inhibition study): comparable inhibitory activity to that of the parent epyrifenacil
Inhibitory activity against mitochondrial PPO, mice relative to humans (mitochondrial PPO; higher in mice than in humans): 10 times
Amount taken up by mouse hepatocytes relative to human hepatocytes (hepatocytes): 6–13 times
